Laboratory results reported in patent US20120142766A1, “SUBSTITUTED 1,3-DIOXANES AND THEIR USES” (EVOLVA SA, priority 2007, published 2012).

Assays:
[1] = tested on: Human platelet rich plasma; assay: TP receptor platelet aggregation, human (U-46619-induced); format: cell-based; conditions: 3 μM U-46619-induced
Procedure: Thrombosis Research 33:277-288.
TP Receptor Platelet Aggregation—Human:
Human (60±10 kg) platelet rich plasma
Assay. Inhibition of 3 μM U-46619-induced platelet aggregation Incubation Time, Temp: 5 minutes at 37° C. Incubation Buffer Trisodium Citrate (0.13 M)-treated fresh platelet rich plasma
Time of Assessment: 5 minutes
Quantification Method Optical Density Change

[2] = tested on: arterial thrombosis in a mouse model; assay: Arterial thrombosis mouse model (FeCl3 on femoral artery); format: in vivo; conditions: i.v.
Procedure: The solutions are diluted 3.3-fold in saline and 100 μl/25 g is injected. Thus, the above-mentioned doses of 100 and 300 mg/kg of compound correspond to final doses of 30 and 100 mg/kg.
During the experiments, a soluble salt of the drug is provided (potassium salt of compound C), diluted in saline. Of this formulation, 100 μl/25 g is injected i.v. in the tail vein (dose of 100 mg/kg).
Solutions are injected (100 μl/25 g body weight) i.v. in the tail vein over 2 min to obtain doses of each compound of 30 mg/kg and 100 mg/kg. Aspirin is given the same way at a dose of 200 mg/kg. Clopidogrel is administered by oral gavage at a dose of 20 mg/kg at 6-7 hours prior to the experiment. The animals assigned to each group are matched for body weight. Mice are typically 8-10 weeks old males and are in a 100% Swiss genetic background.
The flow in each image is expressed as a percentage of that at the contralateral side, and data are averaged for all 120 images to determine total flow. The same analysis is performed for 10 min intervals (which gives essentially the same information as the area under the curve). […] Flow before treatment is recorded as 100%, and that in occluded arteries as 0%. At the end of the experiment, blood is collected on 0.01M citrate by heart puncture for determination of blood cell counts. Plasma is prepared by centrifugation and stored at −20° C. for determination of drug levels.
Statistical analysis for differences between two groups is performed by non-parametric Student t-test. Occlusion times >30 min were considered equal to 30 min for statistical analysis. Significance is set at p<0.05.

[3] = biological target: T1, Thromboxane synthase (Homo sapiens, UniProt P24557); assay: Human platelet thromboxane synthase assay; format: biochemical; conditions: 10 μM
T1 construct: Human Platelet Thromboxane Synthase Assay; from tissue; host or cells: human platelets
T1 sequence (P24557 1-533): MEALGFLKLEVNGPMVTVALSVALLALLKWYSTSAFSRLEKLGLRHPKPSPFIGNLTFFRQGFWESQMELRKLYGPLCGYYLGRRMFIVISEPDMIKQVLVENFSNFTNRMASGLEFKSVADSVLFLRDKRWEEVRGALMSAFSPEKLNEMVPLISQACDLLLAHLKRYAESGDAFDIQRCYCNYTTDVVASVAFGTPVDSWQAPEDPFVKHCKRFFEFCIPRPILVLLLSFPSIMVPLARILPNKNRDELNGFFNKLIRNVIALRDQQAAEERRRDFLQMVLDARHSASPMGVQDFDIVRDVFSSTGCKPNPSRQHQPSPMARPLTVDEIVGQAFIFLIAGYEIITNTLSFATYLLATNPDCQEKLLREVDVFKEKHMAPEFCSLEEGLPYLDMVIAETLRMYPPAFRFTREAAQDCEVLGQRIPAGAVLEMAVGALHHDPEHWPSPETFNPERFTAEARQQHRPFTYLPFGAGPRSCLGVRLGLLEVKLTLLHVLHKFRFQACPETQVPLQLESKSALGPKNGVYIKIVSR
Procedure: The compounds were tested for thromboxane synthase inhibition essentially as described by Borsch-Haubold A G, Pasquet S, Watson S P. (1998) Direct inhibition of cyclooxygenase-1 and -2 by the kinase inhibitors SB 203580 and PD 98059. […] 1. Imidazole derivatives. J Med. Chem. (10):1139-48 according to the following:
Pre-incubation time, temp: 15 minutes at 25° C. Incubation time, temp: 3 minutes at 25° C.
Incubation Buffer: 10 mM Tris-HCl, pH 7.4
Quantification Method: EIA quantification of TxB2

[4] = tested on: KKA^y mice; assay: KKAy mice on high fat diet, 14-day oral gavage BID; format: in vivo, mouse
Procedure: 52 male KKA^y mice are obtained commercially (e.g., from Clea Japan) at an age of 6 weeks and put on a high fat diet upon arrival. Individual mice were housed in IVC Type II cages during both the acclimatization and the experimental phase. Both food (high fat diet) and water are supplied ad libitum.
1 animal per cage. […] Lights on at 06:00 a.m. Temperature: 21-25° C. Relative humidity target range: 55-60%.
Mice were randomized into treatment groups according to their 4-h fasting blood glucose.
4 hours after the last administration, non-fasting conditions.
Gamma irradiated high fat diet is commercially available (e.g., Research Diets, Inc. New Brunswick, N.J. (Product # D12266BI)).
Blood is collected into heparin containing glass capillaries which are subsequently centrifuged in a “Haematokrit 24” centrifuge (Hettich) at 15′200×g for 10 minutes at room temperature to obtain the hematocrit value.
The following serum parameters are determined on a COBAS INTEGRA 800 auto analyzer (Roche Diagnostics, Switzerland) using the reagents and protocols provided by the supplier.
All measurements are made on Day 14 of administration, except for the food intake and body weight measurements that are made on Day 12.

[5] = 53 mg/kg BID oral gavage, Day 12, mean ± S.E.M.
[6] = 53 mg/kg BID oral gavage, Day 14, mean ± S.E.M.
[7] = 14-day BID, enoic acid 53 mg/kg, rosiglitazone 5 mg/kg, Compounds 3 and 13 dose not stated

Q: Which results are given for `O=C(O)CC/C=C\C[C@@H]1CO[C@H](c2ccccc2Cl)O[C@@H]1c1ccccc1O` [Compound C, (Z)-6-((2S,4S,5R)-2-(2-chlorophenyl)-4-(2-hydroxyphenyl)-1,3-dioxan-5-yl)hex-4-enoic acid]?
A: IC50 [1]: 310 nM; Occlusion time ([2]; 30 mg/kg in vehicle): slightly prolongs the occlusion time as compared to aspirin (p=0.024), but has no effect as compared to vehicle; Total blood flow ([2]; 30 mg/kg in vehicle): no effect on total blood flow; Occlusion time ([2]; 100 mg/kg in vehicle): prolongs the occlusion time versus aspirin (p=0.0002), but not versus vehicle only (p=0.095); Total blood flow ([2]; 100 mg/kg in vehicle): slightly improved total blood flow as compared to aspirin (p=0.055), but not as compared to vehicle (p=0.45); Blood flow in the time window 0-10 min ([2]; 100 mg/kg in vehicle, 0-10 min): significantly higher flow as compared to aspirin (p=0.0002) but not as compared to vehicle only (p=0.11); Thromboxane synthase Human platelet Inhibition (%) [3]: 61%; inhibition at 10 µM [3]: 43%; Body Weight [4, 5]: 45.4 ± 1.0 g; Food Intake [4, 5]: 5.0 ± 0.6 g/day; ALP [4, 6]: 21.5 ± 1.6 dU/L; ALT [4, 6]: 5.1 ± 0.6 dU/L; AST [4, 6]: 7.7 ± 1.0 dU/L; FFA [4, 6]: 1.7 ± 0.3 mM; Fructosamine [4, 6]: 0.41 ± 0.03 mM; HDL [4, 6]: 3.1 ± 0.2 mM; HbA1C [4, 6]: 7.8 ± 0.3 %; Heart weight [4, 6]: 208.5 ± 7.6 mg; Hematocrit [4, 6]: 40.1 ± 1.6%; Insulin [4, 6]: 39.1 ± 8.8 µg/L; Serum Glucose [4, 6]: 31.9 ± 3.6 mM; TG [4, 6]: 2.0 ± 0.3 mM; Total Cholesterol [4, 6]: 3.6 ± 0.3 mM; Body weight (in words) [4, 7]: do not alter body weight; Circulating glucose levels (in words) [4, 7]: decreased; FFA (in words) [4, 7]: decreases the FFA; HbA1c levels (in words) [4, 7]: decreased; Heart weight (in words) [4, 7]: no effect on heart weight
